Assay [1] addresses T1, SARS-CoV-2 PLpro (nsp3 1564–1878) (Severe acute respiratory syndrome coronavirus 2, UniProt P0DTD1). The assay can be described thus: biochemical. Also on record: FRET-quenched peptide (Pro3) cleavage by PLpro, 10 min pre-incubation, slope over 20 min, normalised to no-compound control. Particulars: high concentration screen, read-out: % of control remaining.
The target in assay [2] is T1, SARS-CoV-2 PLpro (nsp3 1564–1878). Description: biochemical. Also noted: FRET-quenched peptide (Pro3) cleavage by PLpro, 10 min pre-incubation, slope over 20 min, normalised to no-compound control. The settings on record: low concentration screen, read-out: % of control remaining.

Where a name gives a salt, the structure may show the parent alone. Read-outs that look alike come from different tables or passages of the source.

Turning to `COc1cc(NC(=O)c2ccccn2)ccc1Cl` [VU 0361737], the remaining activity at 3.75 µM in assay [1] (Well no.=4837) was 106%. In assay [2] (Well no.=4837), the remaining activity at 1.25 µM was 98.5%.
For the compound `O=C(Nc1ccc(S(=O)(=O)Nc2ccccc2Cl)c(Cl)c1)c1ccccn1` [VU 0364439], the remaining activity at 3.75 µM in assay [1] (Well no.=4978) was found to be 96.2%. Besides, the remaining activity at 1.25 µM in assay [2] (Well no.=4978) came to 96.2%.
Consider `O=C1C(=O)N(Cc2ccc(-c3ccccc3)cc2)c2ccc(OC(F)(F)F)cc21` [VU 0365114], for which, in assay [1] (Well no.=8036), the remaining activity at 3.75 µM came to 94.8%. The remaining activity at 1.25 µM in assay [2] (Well no.=8036) came out at 97.4%.
For the compound `CN1CCN(c2cc(-c3ccccc3)nc(N)n2)CC1` [VUF10460], in assay [1] (Well no.=7041), the remaining activity at 3.75 µM came out at 105%. In addition, the remaining activity at 1.25 µM in assay [2] (Well no.=7041) was 105%.
As for `COc1ccccc1NC(=O)Nc1nc(-c2cccnc2)nc2ccccc12` [VUF 5574], in assay [1] (Well no.=1384), the remaining activity at 3.75 µM came to 97.5%. For the same compound, the remaining activity at 1.25 µM in assay [2] (Well no.=1384) stood at 101%.
On to `CN1CCN(c2nc3ccccc3nc2Cl)CC1` [VUF 10166], for which, in assay [1] (Well no.=4831), the remaining activity at 3.75 µM was found to be 103%. In assay [2] (Well no.=4831), the remaining activity at 1.25 µM is 99.1%.
With `NC(=O)c1ccc(N(C(N)=O)c2c(F)cccc2F)nc1-c1ccc(F)cc1F` [VX702], the remaining activity at 3.75 µM in assay [1] (Well no.=2943) came to 105%. The remaining activity at 1.25 µM in assay [2] (Well no.=2943) came to 104%.
With `CC(C)(C)C#Cc1cc(N(C(=O)[C@H]2CC[C@H](C)CC2)[C@H]2CC[C@H](O)CC2)c(C(=O)O)s1` [VX-222], the remaining activity at 3.75 µM in assay [1] (Well no.=4903) was 96.2%. In addition, the remaining activity at 1.25 µM in assay [2] (Well no.=4903) came to 97.1%.
Consider `CC(C)(CO)c1cc2cc(NC(=O)C3(c4ccc5c(c4)OC(F)(F)O5)CC3)c(F)cc2n1C[C@@H](O)CO` [VX-661], for which, in assay [1] (Well no.=4780), the remaining activity at 3.75 µM is 94.1%. In addition, in assay [2] (Well no.=4780), the remaining activity at 1.25 µM was 97%.
As to `Cc1ccc(NC(=O)C2(c3ccc4c(c3)OC(F)(F)O4)CC2)nc1-c1cccc(C(=O)O)c1` [VX-809], the remaining activity at 3.75 µM in assay [1] (Well no.=4961) amounted to 95%. Further, the remaining activity at 1.25 µM in assay [2] (Well no.=4961) is 95.6%.
Turning to `Cc1ccc2c(=O)c3cccc(CC(=O)O)c3oc2c1C` [Vadimezan], in assay [1] (Well no.=8465), the remaining activity at 3.75 µM stood at 97.4%. The remaining activity at 1.25 µM in assay [2] (Well no.=8465) stood at 104%.
Turning to `CC(C)[C@H](N)C(=O)OCCOCn1cnc2c(=O)nc(N)[nH]c21` [Valaciclovir], the remaining activity at 3.75 µM in assay [1] (Well no.=2012) came to 97.7%. Besides, in assay [2] (Well no.=2012), the remaining activity at 1.25 µM stood at 98.7%.
`Cc1onc(-c2ccccc2)c1-c1ccc(S(N)(=O)=O)cc1` [Valdecoxib]: the remaining activity at 3.75 µM in assay [1] (Well no.=4694) was 95.9%. In addition, in assay [2] (Well no.=4694), the remaining activity at 1.25 µM came to 97.5%.
Turning to `CC(C)[C@H](N)C(=O)OCC(CO)OCn1cnc2c(=O)nc(N)[nH]c21` (stereo partly shown) [Valganciclovir (hydrochloride)], the remaining activity at 3.75 µM in assay [1] (Well no.=8044) worked out at 93.4%. Besides, in assay [2] (Well no.=8044), the remaining activity at 1.25 µM amounted to 94.6%.
With `CC(C)[C@@H]1NC(=O)[C@H](C)OC(=O)[C@@H](C(C)C)NC(=O)[C@@H](C(C)C)OC(=O)[C@H](C(C)C)NC(=O)[C@H](C)OC(=O)[C@@H](C(C)C)NC(=O)[C@@H](C(C)C)OC(=O)[C@H](C(C)C)NC(=O)[C@H](C)OC(=O)[C@@H](C(C)C)NC(=O)[C@@H](C(C)C)OC1=O` [Valinomycin], the remaining activity at 3.75 µM in assay [1] (Well no.=3631) came out at 101%. The remaining activity at 1.25 µM in assay [2] (Well no.=3631) came out at 99.9%.
On to `CCC(C)C(CC)C(N)=O` (stereo not shown) [Valnoctamide], for which, in assay [1] (Well no.=5429), the remaining activity at 3.75 µM was 110%. In assay [2] (Well no.=5429), the remaining activity at 1.25 µM came out at 103%.
Turning to `CCCC(CCC)C(=O)O` [Valproic acid sodium], the remaining activity at 3.75 µM in assay [1] (Well no.=812) was determined as 99.4%. For the same compound, the remaining activity at 1.25 µM in assay [2] (Well no.=812) was determined as 99.6%.
For `CCCC(CCC)C(=O)O` [Valproic acid], the remaining activity at 3.75 µM in assay [1] (Well no.=1758) came out at 100%. In addition, in assay [2] (Well no.=1758), the remaining activity at 1.25 µM is 98.8%.
For `CCCC(CCC)C(N)=O` [Valpromide], the remaining activity at 3.75 µM in assay [1] (Well no.=5383) came to 109%. Further, the remaining activity at 1.25 µM in assay [2] (Well no.=5383) came out at 103%.
As for `CCCCC(=O)N(Cc1ccc(-c2ccccc2-c2nnn[nH]2)cc1)[C@H](C(=O)O)C(C)C` [Valsartan], the remaining activity at 3.75 µM in assay [1] (Well no.=7542) came to 98%; in assay [1] (Well no.=8247), 99.1%. The remaining activity at 1.25 µM amounted to 94.7% in assay [2] (Well no.=7542) and 105% in assay [2] (Well no.=8247).
In the case of `C/C=C/C[C@@H](C)C(=O)[C@H]1C(=O)N[C@@H](C(C)C)C(=O)N(C)CC(=O)N(C)[C@@H](CC(C)C)C(=O)N[C@@H](C(C)C)C(=O)N(C)[C@@H](CC(C)C)C(=O)N[C@@H](C)C(=O)N[C@H](C)C(=O)N(C)[C@@H](CC(C)C)C(=O)N(C)[C@@H](CC(C)C)C(=O)N(C)[C@@H](C(C)C)C(=O)N1C` [Valspodar], the remaining activity at 3.75 µM in assay [1] (Well no.=8226) is 94.7%. In addition, the remaining activity at 1.25 µM in assay [2] (Well no.=8226) came to 94.7%.
On to `CN[C@H](CC(C)C)C(=O)N[C@H]1C(=O)N[C@@H](CC(N)=O)C(=O)N[C@H]2C(=O)N[C@H]3C(=O)N[C@H](C(=O)N[C@H](C(=O)O)c4cc(O)cc(O)c4-c4cc3ccc4O)[C@H](O)c3ccc(c(Cl)c3)Oc3cc2cc(c3O[C@@H]2O[C@H](CO)[C@@H](O)[C@H](O)[C@H]2O[C@H]2C[C@](C)(N)[C@H](O)[C@H](C)O2)Oc2ccc(cc2Cl)[C@H]1O` [Vancomycin (hydrochloride)], for which, in assay [1] (Well no.=7882), the remaining activity at 3.75 µM worked out at 98.3%. The remaining activity at 1.25 µM in assay [2] (Well no.=7882) worked out at 103%.
Take `COc1cc2/c(=N/c3ccc(Br)cc3F)nc[nH]c2cc1OCC1CCN(C)CC1` [Vandetanib]: in assay [1] (Well no.=2799), the remaining activity at 3.75 µM is 101%. For the same compound, in assay [2] (Well no.=2799), the remaining activity at 1.25 µM is 101%.
As for `CCN(CC)C(=O)c1ccc(O)c(OC)c1` [Vanillic acid diethylamide], the remaining activity at 3.75 µM in assay [1] (Well no.=644) turned out to be 102%. Also, the remaining activity at 1.25 µM in assay [2] (Well no.=644) came to 97.3%.
As to `COc1cc(C=O)ccc1O` [Vanillin], the remaining activity at 3.75 µM in assay [1] (Well no.=7455) was found to be 106%. Also, in assay [2] (Well no.=7455), the remaining activity at 1.25 µM was found to be 103%.
On to `CCCc1nc(C)c2c(O)nc(-c3cc(S(=O)(=O)N4CCN(CC)CC4)ccc3OCC)nn12` [Vardenafil HCl Trihydrate], for which the remaining activity at 3.75 µM in assay [1] (Well no.=8292) was 94.4%. Also, the remaining activity at 1.25 µM in assay [2] (Well no.=8292) is 101%.
On to `CCCc1nc(C)c2c(=O)nc(-c3cc(S(=O)(=O)N4CCN(CC)CC4)ccc3OCC)[nH]n12` [Vardenafil], for which the remaining activity at 3.75 µM in assay [1] (Well no.=1780) stood at 97.8%. For the same compound, the remaining activity at 1.25 µM in assay [2] (Well no.=1780) worked out at 97.7%.
For the compound `c1cnc2cc3c(cc2n1)[C@@H]1CNC[C@H]3C1` [Varenicline tartrate], the remaining activity at 3.75 µM in assay [1] (Well no.=4855) was 103%. Further, the remaining activity at 1.25 µM in assay [2] (Well no.=4855) turned out to be 98.1%.
In the case of `CCc1c(C(=O)C(N)=O)c2c(OCC(=O)O)cccc2n1Cc1ccccc1` [Varespladib (LY315920)], the remaining activity at 3.75 µM in assay [1] (Well no.=4663) stood at 104%. Further, in assay [2] (Well no.=4663), the remaining activity at 1.25 µM is 105%.
With `COC(=O)c1ccc2c(C(=Nc3ccc(N(C)C(=O)CN4CCN(C)CC4)cc3)c3ccccc3)c(O)[nH]c2c1` [Vargatef], the remaining activity at 3.75 µM in assay [1] (Well no.=2847) was found to be 104%. For the same compound, the remaining activity at 1.25 µM in assay [2] (Well no.=2847) was determined as 103%.
Take `O[C@H]1CCN2Cc3ccccc3N=C12` [Vasicine]: the remaining activity at 3.75 µM in assay [1] (Well no.=3406) amounted to 94.4%. Besides, the remaining activity at 1.25 µM in assay [2] (Well no.=3406) was found to be 97.8%.

The values above are taken from paper PMC8286840, “Identifying SARS-CoV-2 antiviral compounds by screening for small molecule inhibitors of Nsp3 papain-like protease” (Biochemical Journal, 2021).
